# Patent publication US11168083B2, “Inhibitors of Plasma Kallikrein and uses thereof” (Takeda Pharmaceutical Company Limited, priority 2017, dated 2021)
# Read-outs that look alike come from different tables or passages of the source.
# Key:
# Assay type in all cases: biochemical
# [1] = tested on: selected anti-target proteases; test: Selectivity screen of serine proteases (overall statement); conditions: none showed any inhibitory activity of the anti-target proteases
# Experimental: (§1) Compounds 11, 33, and 53 were evaluated in a selectivity screen of serine proteases.
# Thrombin = Thrombin (Homo sapiens (Human), UniProt P00734); test: Selectivity screen of serine proteases, anti-target panel: Thrombin
# Experimental: as §1
# FXa = FXa (Homo sapiens (Human), UniProt P00742); test: Selectivity screen of serine proteases, anti-target panel: FXa
# Sequence of FXa (P00742 235-488): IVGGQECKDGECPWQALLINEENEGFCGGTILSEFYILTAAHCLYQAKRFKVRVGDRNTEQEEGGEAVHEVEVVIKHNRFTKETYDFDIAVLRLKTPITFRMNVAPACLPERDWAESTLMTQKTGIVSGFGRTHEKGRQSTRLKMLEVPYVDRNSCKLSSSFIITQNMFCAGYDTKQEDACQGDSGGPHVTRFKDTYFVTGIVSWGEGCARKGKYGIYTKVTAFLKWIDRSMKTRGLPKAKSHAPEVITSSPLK
# Sequence of FXa (P00742 41-179 partner): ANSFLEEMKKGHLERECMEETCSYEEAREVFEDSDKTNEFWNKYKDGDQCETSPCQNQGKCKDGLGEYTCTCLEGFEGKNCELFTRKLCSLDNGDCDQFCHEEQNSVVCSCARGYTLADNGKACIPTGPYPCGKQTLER
# Experimental: as §1
# [2] = target: human activated kallikrein enzyme (Homo sapiens (Human), UniProt P03952); test: Inhibition of human activated kallikrein enzyme, fluorogenic peptide substrate assay (two formats); conditions: read-out: pKal EC50
# Sequence of human activated kallikrein enzyme (P03952 391-638): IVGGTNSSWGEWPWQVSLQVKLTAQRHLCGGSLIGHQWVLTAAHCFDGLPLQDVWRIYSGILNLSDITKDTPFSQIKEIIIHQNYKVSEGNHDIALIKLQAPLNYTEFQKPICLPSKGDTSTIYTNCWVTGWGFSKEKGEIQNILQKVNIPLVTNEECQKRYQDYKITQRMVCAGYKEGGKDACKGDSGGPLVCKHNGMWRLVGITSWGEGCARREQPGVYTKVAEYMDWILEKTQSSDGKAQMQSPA
# Sequence of human activated kallikrein enzyme (P03952 20-390 partner): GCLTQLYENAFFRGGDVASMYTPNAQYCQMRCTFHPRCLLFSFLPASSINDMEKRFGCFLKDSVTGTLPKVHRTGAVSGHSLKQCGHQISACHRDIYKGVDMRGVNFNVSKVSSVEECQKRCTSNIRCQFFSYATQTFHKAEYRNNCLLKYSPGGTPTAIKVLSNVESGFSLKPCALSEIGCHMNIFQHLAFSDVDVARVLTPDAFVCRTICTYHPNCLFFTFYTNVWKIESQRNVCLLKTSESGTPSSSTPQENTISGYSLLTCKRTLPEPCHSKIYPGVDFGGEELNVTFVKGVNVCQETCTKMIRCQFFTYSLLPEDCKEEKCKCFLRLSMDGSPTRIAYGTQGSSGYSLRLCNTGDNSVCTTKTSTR
# Experimental: The example compounds were evaluated for inhibition of the human activated kallikrein enzyme in two formats of an assay employing a fluorogenic peptide substrate. In one assay format, the concentrations of reagents were as follows: 20 mM Tris pH 7.5, 1 mM EDTA, 150 mM sodium chloride, 0.1% PEG-400, 0.1% Triton X-100, 500 pM activated kallikrein enzyme, 300 uM Pro-Phe-Arg-7-amido-4-methylcoumarin substrate. Prior to reaction initiation with substrate, enzyme and inhibitors were preincubated for 30 min at room temperature. After initiation with substrate, reactions were incubated for 10 min at room temperature and fluorescence emission at 460 nm from 380 nm excitation measured with a microplate reader. In another assay format, the concentrations of reagents were as follows: 20 mM Tris pH 7.5, 1 mM EDTA, 150 mM sodium chloride, 0.1% PEG-400, 0.1% Triton X-100, 5 pM activated kallikrein enzyme, 300 uM Pro-Phe-Arg-7-amido-4-methylcoumarin substrate. Prior to reaction initiation with substrate, enzyme and inhibitors were preincubated for 30 min at room temperature. After initiation with substrate, reactions were incubated for 18 hr at room temperature and fluorescence emission at 460 nm from 380 nm excitation measured with a microplate reader.
# Trypsin = test: Selectivity screen of serine proteases, anti-target panel: Trypsin
# Experimental: as §1
# Elastase = test: Selectivity screen of serine proteases, anti-target panel: Elastase
# Experimental: as §1
# [3] = Table 2, column head prints nM, ranges defined in μM
SMILES,"EC50 [2, 3] [nM]",other results
"NCc1ccc(CNC(=O)c2csc([C@@H]3C[C@@H](N)CN3C(=O)c3cn4cc(Cl)ccc4n3)n2)cc1 [Compound 50, 2-((2S,4R)-4-amino-1-(6-chloroimidazo[1,2-a]pyridine-2-carbonyl)pyrrolidin-2-yl)-N-(4-(aminomethyl)benzyl)thiazole-4-carboxamide]",5000 to 9900,–
"N[C@@H]1C[C@@H](c2nc(C(=O)NCc3n[nH]c4cc(Cl)ccc34)cs2)N(C(=O)c2cn3cc(Cl)ccc3n2)C1 [Compound 59, 2-((2S,4R)-4-amino-1-(6-chloroimidazo[1,2-a]pyridine-2-carbonyl)pyrrolidin-2-yl)-N-((6-chloro-1H-indazol-3-yl)methyl)thiazole-4-carboxamide]",> 9900,–
"CNC(=O)[C@H](CCCCNC(=N)N)NC(=O)c1csc([C@@H]2C[C@@H](N)CN2C(=O)c2ccccc2)n1 [Compound 15, 2-((2S,4R)-4-amino-1-benzoylpyrrolidin-2-yl)-N—((S)-6-guanidino-1-(methylamino)-1-oxohexan-2-yl)thiazole-4-carboxamide]",> 9900,–
"CNC(=O)[C@H](CCCCNC(=N)N)NC(=O)c1csc([C@@H]2C[C@@H](N)CN2C(=O)c2ccc3ccccc3c2)n1 [Compound 40, 2-((2S,4R)-1-(2-naphthoyl)-4-aminopyrrolidin-2-yl)-N—((S)-6-guanidino-1-(methylamino)-1-oxohexan-2-yl)thiazole-4-carboxamide]",1000 to 5000,–
"CNC(=O)[C@H](CCCCNC(=N)N)NC(=O)c1csc([C@@H]2C[C@@H](N)CN2C(=O)c2cc3cc(Cl)c(Cl)cc3s2)n1 [Compound 61, 2-((2S,4R)-4-amino-1-(5,6-dichlorobenzo[b]thiophene-2-carbonyl)pyrrolidin-2-yl)-N—((S)-6-guanidino-1-(methylamino)-1-oxohexan-2-yl)thiazole-4-carboxamide]",100 to 1000,–
"N[C@@H]1C[C@@H](c2nc(C(=O)NCc3n[nH]c4ccc(Cl)cc34)cs2)N(C(=O)c2cn3cc(Cl)ccc3n2)C1 [Compound 58, 2-((2S,4R)-4-amino-1-(6-chloroimidazo[1,2-a]pyridine-2-carbonyl)pyrrolidin-2-yl)-N-((5-chloro-1H-indazol-3-yl)methyl)thiazole-4-carboxamide]",5000 to 9900,–
"CNC(=O)[C@H](Cc1c[nH]c2ccccc12)NC(=O)c1csc([C@@H]2C[C@@H](N)CN2C(=O)c2cn3cc(Cl)ccc3n2)n1 [Compound 31, N—((S)-3-(1H-indol-3-yl)-1-(methylamino)-1-oxopropan-2-yl)-2-((2S,4R)-4-amino-1-(6-chloroimidazo[1,2-a]pyridine-2-carbonyl)pyrrolidin-2-yl)thiazole-4-carboxamide]",> 9900,–
"CNC(=O)[C@H](CCCCNC(=N)N)NC(=O)c1csc([C@@H]2C[C@@H](N)CN2C(=O)OCc2cccc(Cl)c2)n1 [Compound 16, 3-chlorobenzyl (2S,4R)-4-amino-2-(4-(((S)-6-guanidino-1-(methylamino)-1-oxohexan-2-yl)carbamoyl)thiazol-2-yl)pyrrolidine-1-carboxylate]",1000 to 5000,–
"CNC(=O)[C@H](CCCCNC(=N)N)NC(=O)c1csc([C@@H]2C[C@@H](N)CN2C(=O)C2CCCCC2)n1 [Compound 17, 2-((2S,4R)-4-amino-1-(cyclohexanecarbonyl)pyrrolidin-2-yl)-N—((S)-6-guanidino-1-(methylamino)-1-oxohexan-2-yl)thiazole-4-carboxamide]",> 9900,–
"N=C(N)c1ccc(CCNC(=O)c2csc([C@@H]3C[C@@H](N)CN3C(=O)c3cn4cc(Cl)ccc4n3)n2)cc1 [Compound 51, 2-((2S,4R)-4-amino-1-(6-chloroimidazo[1,2-a]pyridine-2-carbonyl)pyrrolidin-2-yl)-N-(4-carbamimidoylphenethyl)thiazole-4-carboxamide]",≤ 100,–

# The next lines start with results.
"EC50 [2, 3] [nM]",SMILES,other results
1000 to 5000,"CNC(=O)[C@H](CCCCNC(=N)N)NC(=O)c1csc([C@@H]2CCCN2C(=O)c2cn3cc(Cl)ccc3n2)n1 [Compound 33, 2-((S)-1-(6-Chloroimidazo[1,2-a]pyridine-2-carbonyl)pyrrolidin-2-yl)-N—((S)-6-guanidino-1-(methylamino)-1-oxohexan-2-yl)thiazole-4-carboxamide]",Selectivity for pKal over selected anti-target proteases [1]: selective inhibitors of pKal; IC50 (Thrombin): > 10 µM; IC50 (FXa): > 10 µM; EC50 ([2]; Table 3): 3240 nM; IC50 (Trypsin): > 100 µM; IC50 (Elastase): > 10 µM
> 9900,"CNC(=O)[C@H](CCCCN)NC(=O)c1csc([C@@H]2C[C@@H](N)CN2C(=O)c2cn3cc(Cl)ccc3n2)n1 [Compound 25, 2-((2S,4R)-4-amino-1-(6-chloroimidazo[1,2-a]pyridine-2-carbonyl)pyrrolidin-2-yl)-N—((S)-6-amino-1-(methylamino)-1-oxohexan-2-yl)thiazole-4-carboxamide]",–
1000 to 5000,"CNC(=O)[C@H](CCCCNC(=N)N)NC(=O)c1csc([C@@H]2C[C@@H](NC(C)=O)CN2C(=O)c2cn3cc(Cl)ccc3n2)n1 [Compound 35, 2-((2S,4R)-4-acetamido-1-(6-chloroimidazo[1,2-a]pyridine-2-carbonyl)pyrrolidin-2-yl)-N—((S)-6-guanidino-1-(methylamino)-1-oxohexan-2-yl)thiazole-4-carboxamide]",–
> 9900,"CNC(=O)[C@H](CCCCNC(C)=O)NC(=O)c1csc([C@@H]2C[C@@H](N)CN2C(=O)c2cn3cc(Cl)ccc3n2)n1 [Compound 26, N—((S)-6-acetamido-1-(methylamino)-1-oxohexan-2-yl)-2-((2S,4R)-4-amino-1-(6-chloroimidazo[1,2-a]pyridine-2-carbonyl)pyrrolidin-2-yl)thiazole-4-carboxamide]",–
1000 to 5000,"CNC(=O)[C@H](CCCCNC(=N)N)NC(=O)c1csc([C@@H]2C[C@@H](N)CN2C(=O)c2cc3c(Cl)cccc3s2)n1 [Compound 63, 2-((2S,4R)-4-amino-1-(4-chlorobenzo[b]thiophene-2-carbonyl)pyrrolidin-2-yl)-N—((S)-6-guanidino-1-(methylamino)-1-oxohexan-2-yl)thiazole-4-carboxamide]",–
≤ 100,"CNC(=O)[C@@H](CCCCNC(=N)N)NC(=O)c1csc([C@@H]2C[C@@H](N)CN2C(=O)c2cn3cc(Cl)ccc3n2)n1 [Compound 12, 2-((2S,4R)-4-amino-1-(6-chloroimidazo[1,2-a]pyridine-2-carbonyl)pyrrolidin-2-yl)-N—((R)-6-guanidino-1-(methylamino)-1-oxohexan-2-yl)thiazole-4-carboxamide]",–
> 9900,"CNC(=O)[C@H](CCCCNC(=N)N)NC(=O)c1csc([C@H]2CCCN2C(=O)c2cn3cc(Cl)ccc3n2)n1 [Compound 3, 2-((R)-1-(6-Chloroimidazo[1,2-a]pyridine-2-carbonyl)pyrrolidin-2-yl)-N—((S)-6-guanidino-1-(methylamino)-1-oxohexan-2-yl)thiazole-4-carboxamide]",–
> 9900,"CNC(=O)[C@H](CCCCNC(=N)N)NC(=O)c1csc([C@H]2C[C@@H](O)CN2C(=O)c2cn3cc(Cl)ccc3n2)n1 [Compound 9, 2-((2R,4R)-1-(6-Chloroimidazo[1,2-a]pyridine-2-carbonyl)-4-hydroxypyrrolidin-2-yl)-N—((S)-6-guanidino-1-(methylamino)-1-oxohexan-2-yl)thiazole-4-carboxamide]",–
100 to 1000,"CNC(=O)[C@H](CCCCNC(=N)N)NC(=O)c1csc([C@@H]2C[C@@H](N)CN2C(=O)c2cnc3ccc(Cl)cc3c2)n1 [Compound 66, 2-((2S,4R)-4-amino-1-(6-chloroquinoline-3-carbonyl)pyrrolidin-2-yl)-N—((S)-6-guanidino-1-(methylamino)-1-oxohexan-2-yl)thiazole-4-carboxamide]",–
1000 to 5000,"CNC(=O)[C@H](CCCCNC(=N)N)NC(=O)c1csc([C@H]2C[C@H](N)CN2C(=O)c2cn3cc(Cl)ccc3n2)n1 [Compound 6, 2-((2R,4S)-4-amino-1-(6-chloroimidazo[1,2-a]pyridine-2-carbonyl)pyrrolidin-2-yl)-N—((S)-6-guanidino-1-(methylamino)-1-oxohexan-2-yl)thiazole-4-carboxamide]",–
100 to 1000,"CNC(=O)[C@H](CCCCNC(=N)N)NC(=O)c1csc([C@@H]2C[C@@H](N)CN2C(=O)c2cn3ccccc3n2)n1 [Compound 13, 2-((2S,4R)-4-amino-1-(imidazo[1,2-a]pyridine-2-carbonyl)pyrrolidin-2-yl)-N—((S)-6-guanidino-1-(methylamino)-1-oxohexan-2-yl)thiazole-4-carboxamide]",–
> 9900,"CNC(=O)[C@H](CCCCNC(N)=O)NC(=O)c1csc([C@@H]2C[C@@H](N)CN2C(=O)c2cn3cc(Cl)ccc3n2)n1 [Compound 27, 2-((2S,4R)-4-amino-1-(6-chloroimidazo[1,2-a]pyridine-2-carbonyl)pyrrolidin-2-yl)-N—((S)-1-(methylamino)-1-oxo-6-ureidohexan-2-yl)thiazole-4-carboxamide]",–
